The source of these data is US11021481B2, “Substituted isoindolin-1-ones and 2,3-dihydro-1h-pyrrolo[3,4-c]pyridin-1-ones as HPK1 antagonists” (Nimbus Saturn, Inc., priority 2019, dated 2021).

Usually IC50 stands for the point on the concentration scale where inhibition reaches its midpoint.

SMILES strings stand for the structures.

HPK1, sequence (Q92918 whole entry): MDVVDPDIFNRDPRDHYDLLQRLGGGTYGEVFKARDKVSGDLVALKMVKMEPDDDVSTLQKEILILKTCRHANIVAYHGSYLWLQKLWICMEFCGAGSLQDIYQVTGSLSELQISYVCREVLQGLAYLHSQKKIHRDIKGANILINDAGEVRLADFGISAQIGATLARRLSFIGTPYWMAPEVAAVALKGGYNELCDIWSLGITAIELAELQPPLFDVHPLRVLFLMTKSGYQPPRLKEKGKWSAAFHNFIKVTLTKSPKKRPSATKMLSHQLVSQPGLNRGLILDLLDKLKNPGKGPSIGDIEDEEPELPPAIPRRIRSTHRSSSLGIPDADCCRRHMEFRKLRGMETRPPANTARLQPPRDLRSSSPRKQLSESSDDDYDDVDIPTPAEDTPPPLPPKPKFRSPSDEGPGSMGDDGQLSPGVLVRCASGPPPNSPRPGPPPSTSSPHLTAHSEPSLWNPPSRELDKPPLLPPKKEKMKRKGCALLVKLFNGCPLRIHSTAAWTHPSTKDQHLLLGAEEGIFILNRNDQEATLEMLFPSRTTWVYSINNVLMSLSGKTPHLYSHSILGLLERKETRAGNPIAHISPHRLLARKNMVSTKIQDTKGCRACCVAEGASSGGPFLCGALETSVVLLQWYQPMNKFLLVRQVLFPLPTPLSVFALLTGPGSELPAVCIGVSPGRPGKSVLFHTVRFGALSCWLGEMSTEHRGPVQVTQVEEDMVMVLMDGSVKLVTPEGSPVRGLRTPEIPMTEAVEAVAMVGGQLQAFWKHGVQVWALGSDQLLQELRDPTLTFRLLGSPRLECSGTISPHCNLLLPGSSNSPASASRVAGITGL

This test concerns the target HPK1 (Homo sapiens (Human), UniProt Q92918). Put plainly: HPK1 biochemical enzyme assay (microfluidic mobility shift assay). The note with it: 1.5 nM HPK1, ATP 1 mM final, 30 min preincubation, 60 min at RT, Caliper EZ Reader; read-out: HPK1 1000UMATP caliper IC50. The essentials: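 Mobility shift readout of HPK1 activity after a 60 min RT reaction with 1 mM ATP, 1 μM substrate and 5 mM MgCl2. Enzyme/substrate mix was first exposed to compounds for 30 min, using ten-point curves topping at 3 μM final.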
With `Cc1cc(Nc2cnc(-c3ccnc4c3ccn4C)c3c2C(=O)NC3)nc(N2CC[C@@H]3CNC[C@@H]32)c1` [I-642, 7-((6-((3aR,6aR)-hcxahydropyrr-olo[3,4-b]pyrrol-1(2H)-yl)-4-methylpyridin-2-yl)amino)-4-(1-methyl-1H-pyrrolo[2,3-b]pyridin-4-yl)-2,3-dihydro-1H-pyrrolo[3,4-c]pyridin-1-one], the IC50 is 100 to 1000 nM.
Regarding `Cc1cc(Nc2cnc(-c3ccnc4c3ccn4C)c3c2C(=O)NC3)nc(N2CC[C@H]3CN(C)C[C@H]32)c1` [I-643, 4-(1-methyl-1H-pyrrolo[2,3-b]pyridin-4-yl)-7-((4-methyl-6-((3aS,6aS)-5-methylhcxahydropyrrolo[3,4-b]pyrrol-1(2H)-yl)pyridin-2-yl)amino)-2,3-dihydro-1H-pyrrolo[3,4-c]pyridin-1-one], the half-maximal inhibitory concentration (IC50) was less than 100 nM.
To `Cc1cc(Nc2cnc(-c3ccnc4c3ccn4C)c3c2C(=O)NC3)nc(N2CC[C@@H]3CN(C)C[C@@H]32)c1` [I-644, 4-(1-methyl-1H-pyrrolo[2,3-b]pyridin-4-yl)-7-((4-methyl-6-((3aR,6aR)-5-methylhexahydropyrrolo[3,4-b]pyrrol-1(2H)-yl)pyridin-2-yl)amino)-2,3-dihydro-1H-pyrrolo[3,4-c]pyridin-1-one] belongs 100 to 1000 nM; to `Cc1ccn2c(-c3ccc(Nc4ccc(N5CCO[C@H](C(C)(C)O)C5)cn4)c4c3CNC4=O)cnc2n1` [I-645, (S)-7-((5-(2-(2-hydroxypropan-2-yl)morpliolino)pyridin-2-yl)amino)-4-(7-methylimidazo [1,2-a]pyrimidin-3-yl) isoindolin-1-one], less than 100 nM.
Consider `Cc1ccn2c(-c3ccc(Nc4ccc(N5CCO[C@@H](C(C)(C)O)C5)cn4)c4c3CNC4=O)cnc2n1` [I-646, (R)-7-((5-(2-(2-hydroxypropan-2-yl)morpholino)pyridin-2-yl)amino)-4-(7-methylimidazo [1,2-a]pyrimidin-3-yl) isoindolin-1-one], for which the IC50 was less than 100 nM.
As for `CN1CCN(CC2(O)CCN(c3ccc(Nc4cnc(-c5cnc6ccccn56)c5c4C(=O)NC5)nc3)CC2)CC1` [I-648, 7-((5-(4-hydroxy-4-((4-methylpiperazin-1-yl)methyl)pip-eridin-1-yl)pyridin-2-yl)amino)-4-(imidazo[1,2-a]pyridin-3-yl)-2,3-dihydro-1H-pyrrolo[3,4-c]pyridin-1-one], the half-maximal inhibitory concentration (IC50) is less than 100 nM.
The same measure for `O=C1NCc2c(-c3cnc4c(F)cccn34)ncc(Nc3ccc(N4CC[C@@H](F)[C@H](O)C4)cn3)c21` [I-652, 7-((5-((3R,4R)-4-fluoro-3-hydroxypiperidin-1-yl)pyridin-2-yl)amino)-4-(8-fluoroimidazo [1,2-a]pyridin-3-yl)-2,3-dihydro-1H-pyrrolo[3,4-c]pyridin-1-one]: less than 100 nM; for `O=C1NCc2c(-c3cnc4c(F)cccn34)ncc(Nc3ccc(N4CC[C@H](F)[C@@H](O)C4)cn3)c21` [I-653, 7-((5-((3S.4S)-4-fluoro-3-liydroxy-piperidin-1-yl)pyridin-2-yl)amino)-4-(8-fluoroimidazo [1,2-a]pyridin-3-yl)-2,3-dihydro-1H-pyrrolo[3,4-c]pyridin-1-one]: less than 100 nM.
As to `O=C1NCc2c(-c3cnc4cc(F)ccn34)ncc(Nc3ccc(N4CCCC(O)(CN5CCOCC5)C4)cn3)c21` (stereo not drawn) [I-654, 4-(7-fluoroimidazo [1,2-a]pyridin-3-yl)-7-((5-(3-hydroxy-3-(morpholinomethyl)piperidin-1-yl)pyridin-2-yl)amino)-2.3-dihydro-1H-pyrrolo[3,4-c]pyridin-1-one], the IC50 is less than 100 nM.
As to `CC1(C)CNCCN1Cc1ccc(Nc2ccc(-c3cnc4c(F)c(C(F)F)ccn34)c3c2C(=O)NC3)nc1` [I-655, 4-(7-(difluoromethvl)-8-fluoroimidazo [1,2-a]pyridin-3-yl)-7-((5-((2,2-dimethylpiperazin-1-yl)methyl)pyridin-2-yl)amino)isoin-dolin-1-one], the IC50 is less than 100 nM.
For `O=C1NCc2c(-c3cnc4cc(F)ccn34)ccc(Nc3ccc(N4CCC[C@@](O)(CN5CCOCC5)C4)cn3)c21` [I-656, (R)-4-(7-fluoroimidazo [1,2-a]pyridin-3-yl)-7-((5-(3-hydroxy-3-(morpholinomethyl)piperidin-1-yl)pyridin-2-yl)amino)isoin-dolin-1-one], the IC50 was less than 100 nM.
Regarding `O=C1NCc2c(-c3cnc4cc(F)ccn34)ccc(Nc3ccc(N4CCC[C@](O)(CN5CCOCC5)C4)cn3)c21` [I-657, (S)-4-(7-fluoroimidazo [1,2-a]pyridin-3-yl)-7-((5-(3-hydroxy-3-(morpholinomethyl)piperidin-1-yl)pyridin-2-yl)amino)isoin-dolin-1-one], the half-inhibitory concentration (IC50) was less than 100 nM.
With `O=C1NCc2c(-c3cnc4c(F)cccn34)ncc(Nc3ccc(N4CC[C@H](F)[C@H](O)C4)cn3)c21` [I-658, 7-((5-((3R,4S]-4-fluoro-3-hydroxy-piperidin-1-yl)pyridin-2-yl)amino)-4-(8-fluoroimidazo [1,2-a]pyridin-3-yl)-2,3-dihydro-1H-pyrrolo[3,4-c]pyridin-1-one], the concentration for half-maximal inhibition (IC50) was less than 100 nM.
Take `O=C1NCc2c(-c3cnc4c(F)cccn34)ncc(Nc3ccc(N4CC[C@@H](F)[C@@H](O)C4)cn3)c21` [I-659]: the IC50 is less than 100 nM.
Take `Cc1ccc(Nc2cnc(-c3ccnc4c3ccn4C)c3c2C(=O)NC3)nc1N(C)C1CNC1` [I-667, 7-((6-(azetidin-3-yl-(methyl)amino)-5-methylpyridin-2-yl)amino)-4-(1-methyl-1H-pyrrolo[2.3-b]pyridin-4-yl)-2,3-dihydro-1H-pyrrolo[3,4-c]pyridin-1-one]: the IC50 is more than 1000 nM.
As to `CN(C)C(C)(C)C1CN(c2ccc(Nc3cnc(-c4ccnc5c4ccn5C)c4c3C(=O)NC4)nc2)CCO1` (stereo not drawn) [I-668], the 50% inhibitory concentration (IC50) is less than 100 nM.
As for `CN(C)CCOC1(c2ccc(Nc3ccc(-c4cnc5cc(F)ccn45)c4c3C(=O)NC4)nc2)CCOCC1` [I-669, 7-((5-(4-(2-(dimethylami-no)ethoxy)tetra-hydro-2H-pyran-4-yl)pyridin-2-yl)amino)-4-(7-fluoroimidazo [1,2-a]pyridin-3-yl)isoindolin-1-one], the half-maximal inhibitory concentration (IC50) is less than 100 nM.
Consider `CN1CCN(Cc2ccc(Nc3ccc(-c4cnc5c(F)c(C(F)F)ccn45)c4c3C(=O)NC4)nc2)C(C)(C)C1` [I-672, 4-(7-(difluorometh-yl)-8-fluoroimidazo [1,2-a]pyridin-3-yl)-7-((5-((2.2.4-trimethylpiper-azin-1-yl)methyl)pyri-din-2-yl)amino)isoin-dolin-1-one], for which the IC50 was less than 100 nM.
Regarding `CN1CCCC1C1(O)CCN(c2ccc(Nc3ccc(-c4cnc5cc(F)ccn45)c4c3C(=O)NC4)nc2)CC1` (stereo not drawn) [I-677, 4-(7-fluoroimidazo [1,2-a]pyridin-3-yl)-7-((5-(4-hydroxy-4-(1-methylpyrrol-idin-2-yl)piperidin-1-yl)pyridin-2-yl)amino)isoin-dolin-1-one], the IC50 was less than 100 nM.
As for `Cn1ccc2c(-c3ncc(Nc4cccc(N5CC6(CCN6)C5)n4)c4c3CNC4=O)ccnc21` [I-680, 7-((6-(l,6-diazaspiro[3,3]heptan-6-yl)pyridin-2-yl)amino)-4-(1-methyl-1H-pyrrolo[2,3-b]pyridin-4-yl)-2,3-dihydro-1H-pyrrolo[3,4-c]pyridin-1-one], the half-maximal inhibitory concentration (IC50) was 100 to 1000 nM.
`COc1cc(Nc2cnc(-c3ccnc4c3ccn4C)c3c2C(=O)NC3)nc(N2CC[C@H]3CNC[C@H]32)c1` [I-681, 7-((6-((3aS, 6aS)-hexahydropyrrolo[3,4-b]pyrrol-1(2H)-yl)-4-methoxypyridin-2-yl)amino)-4-(1-methyl-1H-pyrrolo[2,3-b]pyridin-4-yl)-2,3-dihydro-1H-pyrrolo[3,4-c]pyridin-1-one]: the IC50 was less than 100 nM.
As for `COc1cc(Nc2cnc(-c3ccnc4c3ccn4C)c3c2C(=O)NC3)nc(N2CC[C@@H]3CNC[C@@H]32)c1` [I-682, 7-((6-((3aR,6aR)-hexahydro-pyrrolo[3,4-b]pyrrol-l(2H)-yl)-4-methoxypyridin-2-yl)amino)-4-(1-methyl-1H-pyrrolo[2,3-b]pyridin-4-yl)-2,3-dihydro-1H-pyrrolo[3,4-c]pyridin-1-one], the concentration for half-maximal inhibition (IC50) fell in the range of 100 to 1000 nM.
The same measure for `O=C1NCc2c(-c3cnc4c(F)cccn34)ncc(Nc3ccc(C4(O)CCOCC4)cn3)c21` [I-683, 4-(8-fluoroimidazo [1,2-a]pyridin-3-yl)-7-((5-(4-hydroxytetra-hydro-2H-pyran-4-yl)pyridin-2-yl)amino)-2,3-dihydro-1H-pyrrolo[3,4-c)pyridin-1-one]: less than 100 nM.
On to `Cn1ccc2c(-c3ncc(Nc4ccnc(N5CC[C@H]6CNC[C@H]65)n4)c4c3CNC4=O)ccnc21` [I-684, 7-((2-((3aS, 6aS)-hexahydro-pyrrolo[3,4-b]pyrrol-1(2H)-yl)pyrimidin-4-yl)amino)-4-(1-methyl-1H-pyrrolo[2,3-b)pyridin-4-yl)-2,3-dihydro-1H-pyrrolo[3,4-c]pyridin-1-one], for which the half-maximal inhibitory concentration (IC50) is less than 100 nM.
Take `Cn1ccc2c(-c3ncc(Nc4ccnc(N5CC[C@@H]6CNC[C@@H]65)n4)c4c3CNC4=O)ccnc21` [I-685, 7-((2-((3aR,6aR)-hexahydro-pyrrolo[3,4-b]pyrrol-1(2H)-yl)pyrimidin-4-yl)amino)-4-(1-methyl-1H-pyrrolo[2,3-b]pyridin-4-yl)-2,3-dihydro-1H-pyrrolo[3,4-c]pyridin-1-one]: the IC50 lay within 100 to 1000 nM.
As for `Cn1ccc2c(-c3ncc(Nc4cccc(N5C[C@@H](CN6CCC6)CCC5=O)n4)c4c3CNC4=O)ccnc21` [I-688, (R)-7-((6-(5-(azetidin-1-ylmethyl)-2-oxopiperidin-1-yl)pyridin-2-yl)amino)-4-(1-methyl-1H-pyrrolo[2,3-b]pyridin-4-yl)-2,3-dihydro-1H-pyrrolo[3,4-c]pyridin-1-one], the IC50 was more than 1000 nM.
As for `Cn1ccc2c(-c3ncc(Nc4cccc(N5C[C@H](CN6CCC6)CCC5=O)n4)c4c3CNC4=O)ccnc21` [I-689, (S)-7-((6-(5-(azetidin-1-ylmethyl)-2-oxopiperidin-1-yl)pyridin-2-yl)amino)-4-(1-methyl-1H-pyrrolo[2,3-b]pyridin-4-yl)-2,3-dihydro-1H-pyrrolo[3,4-c]pyridin-1-one], the IC50 lay in the range of 100 to 1000 nM.
